The results in this text go back to US20220087996A1, “Histone acetylase p300 inhibitor and use thereof” (HINOVA PHARMACEUTICALS INC., priority 2018, published 2022).

Bounds are passed on as bounds.

Broadly, the IC50 is the midpoint of a concentration-inhibition curve.

The target of one experiment is T1, histone acetylase p300 (Homo sapiens, UniProt Q09472).
T1 construct: purchased BPS
Kind of experiment: Inhibitory activity on histone acetylase p300 (radioisotope FlashPlate). The format is biochemical. Particulars: enzyme 0.2 nM, peptide substrate 600 nM, [3H]-Ac-CoA 250 nM; read-out: IC50 against P300. From the text:
Using the radioisotope FlashPlate technology, the half inhibitory concentration (IC50) of the compound according to the present invention was detected against histone acetylase p300 (purchased from BPS). […] Under the catalysis of histone acetylase p300, [3H]—Ac group in the isotope-labeled [3H]-Ac-CoA was transferred to the biotinylated histone polypeptide substrate (purchased from GL Biochem Ltd.), and then the biotinylated histone peptide substrate bound to the streptavidin on the FlashPlate board, so that the isotope was close enough to the FlashPlate board. Thus, the radiation energy of isotope could convert the scintillation fluid coated on the FlashPlate board into photons, that was able to be detected. Detailed procedures were as follows:
• 1× reaction buffer: 50 mM Tris-HCl, pH 7.5; 0.01% Tween-20 • Reaction stop solution: 750 μM Ac-CoA solution
Each test compound was dissolved into 10 mM with 100% DMSO, and then each compound was diluted to the desired concentration in Echo 384-well plate. […] 200 nl of 100% DMSO was transferred into the well as the negative control.
p300 was added to 1× reaction buffer to form a 2× enzyme solution (the final concentration of enzyme being 0.2 nM).
The peptide substrate and [3H]-Ac-CoA were added to the 1-fold reaction buffer, to form a 2-fold substrate solution (the final concentration of the substrate being 600 nM and 250 nM, respectively).
10 μl of 2-fold enzyme solution was added to the wells of 384-well reaction plate. […] The plate was centrifuged at 1000 rpm for 1 min and incubated at room temperature for 15 min.
10 μl of 2-fold substrate solution was added to each well of 384-well reaction plate. The plate was centrifuged at 1000 rpm for 1 min, and then reacted at 25° C. for 60 min.
10 μl of reaction stop solution was added to each well of 384-well reaction plate to stop the reaction. 25 μL solution was collected from each well of the test plate and transferred to Flashplate, that was placed at room temperature for 1 h. Then, Flashplate plate was washed three times with 0.1% Tween-20 solution.
4) Reading Data with MicroBeta 2
The data were copied from Microbeta 2. […] The maximum value is the conversion rate of the control DMSO, and the minimum value is the conversion rate of the control without enzyme activity.
The data were imported into Graph Pad Prism5, and the formula “log(inhibitor) vs. response−Variable slope” was used to perform curve fitting, to obtain the half inhibitory concentration (IC50).

The subject of experiment [1] is CWR22RV1 cells. Kind of experiment: Inhibition of proliferation of CWR22RV1 cells (CCK-8). The format is cell-based, human. Particulars: 6 days culture. The procedure, abridged:
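Proliferation read-out was CCK-8 absorbance at 450 nm after 2.5 h, following 6-day culture with compound. Each well held 1500 CWR22RV1 cells; the 3-fold, 9-point series started at a final 10 μM in 0.1% DMSO. Dose-response-inhibition fit gave the IC50.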

Experiment [2] relates to CWR22RV1 cells. Kind of experiment: Compound in combination with CDK4/6 inhibitor palbociclib on proliferation of CWR22RV1 cells. The format is cell-based, human. The following applies: Homo sapiens, CWR22Rv1, single agent; read-out: IC50 against the activity of CWR22RV1 cells. The procedure: The IC50 values (nM) of the compound according to the present invention, palbociclib, and the combination of the compound according to the present invention and palbociclib against CWR22RV1 cell proliferation were tested and calculated, and the detailed procedures were as follows:
(§1) 1) CWR22RV1 cells were subcultured in cell culture medium, and the cells in good growth condition were seeded in a 96-well plate, 60 μL for each well, and the cell number in each well was 2000. The plate was incubated overnight in a 37° C., 5% CO2 cell incubator. 2) The drug was prepared as 10 mM stock solution with dimethyl sulfoxide (DMSO). Prior to use, the stock solution was diluted 3 times with DMSO, and then further diluted as 3-fold gradient to obtain 9 concentration gradients. Then, each concentration of compound was diluted 200 times with the culture solution (ensuring that the DMSO concentration in the culture system was 0.1%), and two replicate wells were set for each concentration. 20 μL of diluted compound solution was added to the cell culture well (with final concentrations of 10 μM, 3.3 μM, 1.1 μM . . . ). Palbociclib was diluted with culture medium to 500 nM, 150 nM, 50 nM, 5 nM, and 20 μL diluted compound solution was added to the corresponding cell culture wells (with a final concentration of 100 nM, 30 nM, 10 nM, 1 nM). The plate was gently shaken to mix. In addition, 3 negative control wells containing only cells and 3 blank control wells containing only culture medium were included (6 wells were each added 20 μL DMSO diluted 200 times with culture medium).
(§2) (1) After culturing for 6 days, 10 μL CCK-8 was added to each well, and the plate was continually cultured in a 37° C., 5% CO2 cell incubator for 2.5 h. (2) The absorbance (OD value) was detected at 450 nm using a multifunctional microplate reader. (3) The data were analyzed by Dose-response-inhibition equation in the software GraphPad Prism6, and the IC50 value was obtained.

The next experiment concerns MCF-7 cells. The experiment can be described thus: Compound in combination with CDK4/6 inhibitor palbociclib against proliferation of MCF-7 cells. The format is cell-based. Particulars: Homo sapiens, MCF7, single agent. The procedure:
as §1, §2
Using the same method as Experimental example 4, CWR22RV1 cells were replaced with MCF-7 cells, and the IC50 values (nM) of the compound according to the present invention, palbociclib, as well as the combination of the compound according to the present invention and palbociclib against the proliferation of MCF-7 cells w ere tested and calculated.

Where [3] appears, read: Homo sapiens, CWR22Rv1, 144 h, read-out: IC50 against CWR22RV1 cells.
[4] abbreviates: Homo sapiens, CWR22Rv1, 144 h, read-out: IC50 against CWR22RV1 cells (text).

T1 sequence (Q09472 whole entry): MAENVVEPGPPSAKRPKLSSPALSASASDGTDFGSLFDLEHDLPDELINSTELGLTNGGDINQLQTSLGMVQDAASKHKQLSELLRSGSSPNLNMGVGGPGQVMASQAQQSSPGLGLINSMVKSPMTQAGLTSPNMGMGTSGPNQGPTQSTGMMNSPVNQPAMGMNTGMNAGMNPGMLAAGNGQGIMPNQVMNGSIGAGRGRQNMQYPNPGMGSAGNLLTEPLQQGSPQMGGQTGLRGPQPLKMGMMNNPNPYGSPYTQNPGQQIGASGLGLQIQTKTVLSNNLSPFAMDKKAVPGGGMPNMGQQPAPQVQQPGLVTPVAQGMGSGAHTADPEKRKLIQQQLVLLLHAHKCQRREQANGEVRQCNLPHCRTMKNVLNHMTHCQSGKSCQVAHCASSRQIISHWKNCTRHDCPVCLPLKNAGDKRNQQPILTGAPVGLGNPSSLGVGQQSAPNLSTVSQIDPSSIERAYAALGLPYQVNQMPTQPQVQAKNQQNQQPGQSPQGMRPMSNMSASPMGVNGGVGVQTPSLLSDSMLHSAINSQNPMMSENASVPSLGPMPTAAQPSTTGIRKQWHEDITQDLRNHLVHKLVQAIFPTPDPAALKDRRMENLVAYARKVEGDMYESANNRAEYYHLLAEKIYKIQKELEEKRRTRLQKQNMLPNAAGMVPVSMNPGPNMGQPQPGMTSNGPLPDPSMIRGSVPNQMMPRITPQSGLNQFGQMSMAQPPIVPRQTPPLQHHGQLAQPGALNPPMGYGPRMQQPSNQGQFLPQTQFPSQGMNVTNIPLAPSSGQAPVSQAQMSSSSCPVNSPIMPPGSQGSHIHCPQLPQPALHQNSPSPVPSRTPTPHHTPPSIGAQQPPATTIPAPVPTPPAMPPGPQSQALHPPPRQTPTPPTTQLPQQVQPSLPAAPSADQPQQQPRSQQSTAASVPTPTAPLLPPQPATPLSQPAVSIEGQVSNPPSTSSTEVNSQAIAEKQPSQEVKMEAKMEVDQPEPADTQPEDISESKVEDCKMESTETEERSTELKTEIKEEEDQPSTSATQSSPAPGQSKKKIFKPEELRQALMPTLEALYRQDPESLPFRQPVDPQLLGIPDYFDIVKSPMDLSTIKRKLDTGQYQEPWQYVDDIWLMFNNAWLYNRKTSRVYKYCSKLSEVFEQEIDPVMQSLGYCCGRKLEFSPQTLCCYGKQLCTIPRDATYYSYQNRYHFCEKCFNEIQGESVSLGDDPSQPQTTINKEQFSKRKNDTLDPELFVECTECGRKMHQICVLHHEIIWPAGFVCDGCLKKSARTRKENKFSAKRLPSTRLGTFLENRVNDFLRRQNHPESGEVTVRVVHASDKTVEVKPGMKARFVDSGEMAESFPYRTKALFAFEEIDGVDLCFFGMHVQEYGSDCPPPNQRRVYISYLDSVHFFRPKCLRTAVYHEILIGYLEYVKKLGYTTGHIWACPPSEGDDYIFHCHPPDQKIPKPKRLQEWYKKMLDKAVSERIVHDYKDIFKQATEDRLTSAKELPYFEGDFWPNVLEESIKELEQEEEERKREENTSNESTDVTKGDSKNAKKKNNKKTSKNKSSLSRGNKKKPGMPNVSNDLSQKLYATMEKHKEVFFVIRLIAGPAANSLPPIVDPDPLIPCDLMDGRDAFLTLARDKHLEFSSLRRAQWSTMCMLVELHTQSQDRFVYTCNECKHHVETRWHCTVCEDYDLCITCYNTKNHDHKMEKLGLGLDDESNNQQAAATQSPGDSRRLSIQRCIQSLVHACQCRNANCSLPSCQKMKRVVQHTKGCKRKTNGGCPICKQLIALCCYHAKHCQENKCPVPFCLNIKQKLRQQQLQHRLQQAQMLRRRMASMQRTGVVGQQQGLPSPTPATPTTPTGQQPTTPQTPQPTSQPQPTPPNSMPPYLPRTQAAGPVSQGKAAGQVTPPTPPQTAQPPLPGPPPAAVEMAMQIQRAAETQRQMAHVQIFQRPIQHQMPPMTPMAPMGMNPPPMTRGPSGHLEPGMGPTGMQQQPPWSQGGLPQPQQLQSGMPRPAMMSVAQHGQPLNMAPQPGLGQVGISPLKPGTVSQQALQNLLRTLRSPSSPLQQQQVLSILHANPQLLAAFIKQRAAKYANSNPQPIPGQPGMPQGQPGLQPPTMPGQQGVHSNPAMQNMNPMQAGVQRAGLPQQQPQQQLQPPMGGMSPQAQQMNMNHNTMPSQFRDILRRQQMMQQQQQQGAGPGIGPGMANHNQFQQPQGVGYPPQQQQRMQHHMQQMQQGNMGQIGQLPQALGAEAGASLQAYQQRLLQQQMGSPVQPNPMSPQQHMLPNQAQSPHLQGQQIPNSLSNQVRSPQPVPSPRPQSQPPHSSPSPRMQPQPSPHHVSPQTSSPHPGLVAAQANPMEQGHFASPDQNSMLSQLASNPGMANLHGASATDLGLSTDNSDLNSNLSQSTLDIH

As to `COC(=O)Nc1ccc2c(c1)CC[C@@]21OC(=O)N(CC(=O)N2[C@@H](C)CC[C@H]2c2ccc(F)cc2)C1=O` [Example 115, ((R)-3′-(2-((2S,5S)-2-(4-fluorophenyl)-5-methylpyrrolidin-1-yl)-2-oxoethyl)-2′,4′-dioxo-2,3-dihydrospiro[indene-1,5′-oxazolidine]-5-yl)carbamic acid methyl ester], the values for the IC50 at histone acetylase p300 and in the experiment on CWR22RV1 cells [1] (setting [3]) were 64 nM and more than 2000 nM, respectively.
Turning to `CNC(=O)Nc1ccc2c(c1)CC[C@@]21OC(=O)N(CC(=O)N2[C@@H](C)CC[C@H]2C2CCC(F)(F)CC2)C1=O` [Example 209, 1-((R)-3′-(2-((2S,5S)-2-(4,4-difluorocyclohexyl)-5-methylpyrrolidin-1-yl)-2-oxoethyl)-2′,4′-dioxo-2,3-dihydrospiro[indene-1,5′-oxazolidine]-5-yl)-3-methylurea], the IC50 on histone acetylase p300 is 11 nM; with CWR22RV1 cells [1] (setting [3]) it was not above 500 nM; in the experiment with CWR22RV1 cells [1] (setting [4]), not above 500 nM.
On to `CNC(=O)Nc1ccc2c(c1)CC[C@@]21OC(=O)N(CC(=O)N2[C@@H](C)CC[C@H]2c2ccc(F)c(Cl)c2)C1=O` [Example 213, 1-((R)-3′-(2-((2S,5S)-2-(3-chloro-4-fluorophenyl)-5-methylpyrrolidin-1-yl)-2-oxoethyl)-2′,4′-dioxo-2,3-dihydrospiro[indene-1,5′-oxazolidine]-5-yl)-3-methylurea], for which the 50% inhibitory concentration (IC50) on histone acetylase p300 was 13 nM; with CWR22RV1 cells [1] (read-out: IC50 against CWR22RV1 cells), not above 500 nM; in the experiment with CWR22RV1 cells [1] (setting [4]), not above 500 nM.
With `CNC(=O)Nc1ccc2c(c1)CC[C@@]21OC(=O)N(CC(=O)N2[C@@H](C)CC[C@H]2c2ccc(F)cc2F)C1=O` [Example 217, 1-((R)-3′-(2-((2S,5S)-2-(2,4-difluorophenyl)-5-methylpyrrolidin-1-yl)-2-oxoethyl)-2′,4′-dioxo-2,3-dihydrospiro[indene-1,5′-oxazolidine]-5-yl)-3-methylurea], the values for the IC50 on histone acetylase p300, in the experiment on CWR22RV1 cells [1] (setting [3]) and in the experiment with CWR22RV1 cells [1] (setting [4]) were 5.5 nM, not above 500 nM and not above 500 nM, respectively.
On to `CNC(=O)Nc1ccc2c(c1)CC[C@@]21OC(=O)N(CC(=O)N2CCC[C@H]2c2ccccc2)C1=O` [Example 225, 1-((R)-2′,4′-dioxo-3′-(2-oxo-2-((S)-2-phenylpyrrolidin-1-yl)ethyl)-2,3-dihydrospiro[indene-1,5′-oxazolidine]-5-yl)-3-methylurea], for which the IC50 is 67 nM on histone acetylase p300 and 500 to 2000 nM in the experiment on CWR22RV1 cells [1] (setting [3]).
For `CNC(=O)Nc1ccc2c(c1)CC[C@@]21OC(=O)N(CC(=O)N2CCCC2c2ccccc2OC)C1=O` (stereo partly drawn) [Example 319, 1-((1R)-3′-(2-(2-(2-methoxyphenyl)pyrrolidin-1-yl)-2-oxoethyl)-2′,4′-dioxo-2,3-dihydrospiro[indene-1,5′-oxazolidine]-5-yl)-3-methylurea], in that order: 84 nM and more than 2000 nM.
For the compound `CNC(=O)Nc1ccc2c(c1)CC[C@@]21OC(=O)N(CC(=O)N2C(C)CCC2c2ccc(OC)cc2)C1=O` (stereo partly drawn) [Example 350, 1-((1R)-3′-(2-(2-(4-methoxyphenyl)-5-methylpyrrolidin-1-yl)-2-oxoethyl)-2′,4′-dioxo-2,3-dihydrospiro[indene-1,5′-oxazolidine]-5-yl)-3-methylurea], the IC50 was 33 nM at histone acetylase p300 and 500 to 2000 nM in the experiment on CWR22RV1 cells [1] (setting [3]).
Turning to `CNC(=O)Nc1ccc2c(c1)CC[C@@]21OC(=O)N(CC(=O)N2[C@@H](COC)CC[C@H]2c2ccc(F)cc2)C1=O` [Example 362, 1-(3′-(2-((2S,5R)-2-(4-fluorophenyl)-5-(methoxymethyl)pyrrolidin-1-yl)-2-oxoethyl)-2′,4′-dioxo-2,3-dihydrospiro[indene-1,5′-oxazolidine]-5-yl)-3-methylurea], the IC50 on histone acetylase p300 is 15 nM; with CWR22RV1 cells [1] (setting [3]) it was not above 500 nM; in the experiment with CWR22RV1 cells [1] (setting [4]), not above 500 nM.
For `CNC(=O)Nc1ccc2c(c1)CC[C@@]21OC(=O)N(CC(=O)N2C(c3ccc(F)cc3F)CC[C@@H]2C)C1=O` (stereo partly drawn) [Example 370, 1-((R)-3′-(2-((5S)-2-(2,4-difluorophenyl)-5-methylpyrrolidin-1-yl)-2-oxoethyl)-2′,4′-dioxo-2,3-dihydrospiro[indene-1,5′-oxazolidine]-5-yl)-3-methylurea], the figures for the IC50 on histone acetylase p300 and in the experiment on CWR22RV1 cells [1] (setting [3]) were 103 nM and more than 2000 nM, respectively.
For `C[C@H]1CC[C@@H](c2ccc(F)cc2)N1C(=O)CN1C(=O)O[C@@]2(CCc3cc(NC(=O)NC4CC4)ccc32)C1=O` [Example 371, 1-((R)-3′-(2-((2S,5S)-2-(4-fluorophenyl)-5-methylpyrrolidin-1-yl)-2-oxoethyl)-2′,4′dioxo-2,3-dihydrospiro[indene-1,5-oxazolidine]-5-yl)-3-cyclopropylurea] the same measures were 3.1 nM and 500 to 2000 nM.
For the compound `CC(=O)c1c(C)c2cnc(Nc3ccc(N4CCNCC4)cn3)nc2n(C2CCCC2)c1=O` [palbociclib, reference compound], the IC50 in the experiment with CWR22RV1 cells [2] was 66 nM; with MCF-7 cells it was 34 nM.
